From US7736624B2, “Methods and compositions for diagnostic and therapeutic targeting of COX-2” (priority 2006, dated 2010)
Where two headings read alike, the source gives them in different places.

Legend:
ovine COX-1 = molecular target: T1, ovine COX-1 (Ovis aries, UniProt P05979); assay: IC50 determinations using purified enzymes (TLC assay), COX-1; assay type: biochemical; conditions: assayed against purified enzymes
T1 construct: can be purified from ovine seminal vesicles by standard procedures; from tissue; host or cells: ovine seminal vesicles
T1 sequence (P05979 25-600): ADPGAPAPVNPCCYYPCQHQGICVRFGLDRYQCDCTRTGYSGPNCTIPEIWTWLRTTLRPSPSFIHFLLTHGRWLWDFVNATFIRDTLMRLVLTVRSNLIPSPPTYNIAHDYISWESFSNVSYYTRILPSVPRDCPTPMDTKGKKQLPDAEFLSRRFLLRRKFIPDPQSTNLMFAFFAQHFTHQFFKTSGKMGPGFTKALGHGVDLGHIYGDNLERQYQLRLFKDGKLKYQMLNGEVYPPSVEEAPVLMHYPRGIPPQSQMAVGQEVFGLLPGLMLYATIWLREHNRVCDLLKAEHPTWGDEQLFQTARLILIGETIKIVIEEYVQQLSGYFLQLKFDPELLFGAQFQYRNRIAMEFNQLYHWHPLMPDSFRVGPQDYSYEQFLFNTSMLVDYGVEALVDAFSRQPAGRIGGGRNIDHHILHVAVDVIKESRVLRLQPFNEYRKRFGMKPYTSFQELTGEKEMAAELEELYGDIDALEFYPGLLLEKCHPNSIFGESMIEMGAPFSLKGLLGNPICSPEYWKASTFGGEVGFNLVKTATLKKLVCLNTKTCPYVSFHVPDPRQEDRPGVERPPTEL
Text: (§1) Those skilled in the art will appreciate that an evaluation of the selectivity and efficacy of binding of the NSAID derivative to the COX-2 enzyme, e.g., after the derivative is synthesized, can be desirable. […] One example of an in vitro screening method takes advantage of the fact that both human and murine recombinant COX-2 can be expressed and isolated in pure form from an Sf9 cell expression system. […] Alternatively, membrane preparations from outdated human platelets can provide a source of human COX-1. […] The reaction is stopped by the addition of ethanol/methanol/1 M citrate, pH 4.0 (30:4:1). The extracted products are separated by thin layer chromatography (TLC), which allows quantitation of total product formation as well as assessment of product distribution. This assay is useful to define IC50 values for inhibition of either enzyme, and to determine time-dependency of inhibition. It also provides information concerning changes in products formed as a result of inhibition.
(§2) Reactions were terminated by solvent extraction in Et2O/CH3OH/1 M citrate, pH 4.0 (30:4:1). The phases were separated by centrifugation at 2000 g for 5 minutes and the organic phase was spotted on a 20×20 cm TLC plate (Lieselgel 60, EMD Chemicals, Inc., Gibbstown, N.J., United States of America). The plate was developed in EtOAc/CH2Cl2/glacial AcOH (75:25:1) at 4° C. Radiolabeled prostanoid products were quantitatively determined with a radioactivity scanner available from Bioscan, Inc. (Washington, D.C., United States of America). The percentage of total products observed at different concentrations of the presently disclosed compositions was divided by the percentage of products observed for protein samples preincubated for the same amount of time with DMSO.

COX-2 = molecular target: T2, COX-2 (Homo sapiens, UniProt P35354); assay: IC50 determinations using purified enzymes (TLC assay), COX-2; assay type: biochemical; design: made in house; host or cells: Sf9 insect cells; conditions: assayed against purified enzymes, read-out: IC50 COX-2
T2 sequence (P35354 18-604): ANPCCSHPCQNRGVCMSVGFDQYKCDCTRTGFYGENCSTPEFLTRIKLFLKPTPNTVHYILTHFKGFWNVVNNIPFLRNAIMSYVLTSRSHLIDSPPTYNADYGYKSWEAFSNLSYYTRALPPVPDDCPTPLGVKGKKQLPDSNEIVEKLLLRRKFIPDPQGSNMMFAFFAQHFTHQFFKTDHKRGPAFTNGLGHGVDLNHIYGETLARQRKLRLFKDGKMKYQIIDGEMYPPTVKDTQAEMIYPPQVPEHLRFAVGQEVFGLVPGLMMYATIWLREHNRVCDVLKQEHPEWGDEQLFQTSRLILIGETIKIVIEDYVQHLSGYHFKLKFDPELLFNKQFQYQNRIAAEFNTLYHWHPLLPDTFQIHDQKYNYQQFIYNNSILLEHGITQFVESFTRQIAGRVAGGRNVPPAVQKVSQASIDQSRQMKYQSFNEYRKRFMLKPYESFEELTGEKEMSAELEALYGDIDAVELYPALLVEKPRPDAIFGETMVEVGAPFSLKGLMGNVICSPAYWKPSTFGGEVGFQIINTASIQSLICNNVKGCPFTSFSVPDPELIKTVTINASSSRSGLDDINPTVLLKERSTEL
Text: as §1, §2

Compound	IC50 (ovine COX-1; Table 3) [µM]	IC50 (COX-2; Table 3) [µM]	IC50 (ovine COX-1; Table 2) [µM]	IC50 (COX-2; Table 2) [µM]
COc1ccc2c(c1)c(CC(=O)NCCCCCNC(=O)c1ccc(C(=O)[O-])c(C3=c4cc5c6c(c4Oc4c3cc3c7c4CCCN7CCC3)CCC[N+]=6CCC5)c1)c(C)n2C(=O)c1ccc(Cl)cc1 [Compound 27zz]	> 25	> 25		
COc1ccc2c(c1)c(CCNC(=O)c1cc3ccccc3oc1=O)c(C)n2Cc1ccc(Br)cc1 [Compound 28b]	> 25	> 25		
COc1ccc2c(c1)c(CCNC(=O)Cc1ccc(Nc3ccc([N+](=O)[O-])c4nonc34)cc1)c(C)n2Cc1ccc(Br)cc1 [Compound 28c]	> 25	> 25		
COc1ccc2c(c1)c(CCNC(=O)c1ccc(C(=O)[O-])c(C3=c4cc5c6c(c4Oc4c3cc3c7c4CCCN7CCC3)CCC[N+]=6CCC5)c1)c(C)n2Cc1ccc(Br)cc1 [Compound 28e]	> 25	> 25		
COC(=O)c1cc(-c2ccc(C)cc2)n(-c2ccc(S(C)(=O)=O)cc2)n1 [Compound 29b]			> 25	2.8
COSc1ccc(-n2nc(C(=O)OC)cc2-c2ccc(C)cc2)cc1 [Compound 29c]			> 25	> 25
Cc1ccc(-c2cc(C(=O)O)nn2-c2ccc(S(C)(=O)=O)cc2)cc1 [Compound 29d]			> 25	> 25
Cc1ccc(-c2cc(CCC(=O)NCCN)nn2-c2ccc(S(C)(=O)=O)cc2)cc1 [Compound 29f]			> 25	> 25
CC[N+](CC)=c1ccc2nc3c(cc(NC(=O)CCc4cc(-c5ccc(C)cc5)n(-c5ccc(S(C)(=O)=O)cc5)n4)c4ccccc43)oc-2c1 [Compound 29g]	> 25	> 25		
Cc1ccc(-c2cc(CCC(=O)NCCNC(=O)c3ccc(C(=O)[O-])c(C4=c5cc6c7c(c5Oc5c4cc4c8c5CCCN8CCC4)CCC[N+]=7CCC6)c3)nn2-c2ccc(S(C)(=O)=O)cc2)cc1 [Compound 29h]	> 25	> 25		
Cc1ccc(-c2cc(C(=O)O)nn2-c2ccc(S(N)(=O)=O)cc2)cc1 [Compound 30d]			> 25	> 25
Cc1ccc(-c2cc(CCC(=O)NCCNC(=O)c3ccc(C(=O)[O-])c(C4=c5cc6c7c(c5Oc5c4cc4c8c5CCCN8CCC4)CCC[N+]=7CCC6)c3)nn2-c2ccc(S(N)(=O)=O)cc2)cc1 [Compound 30e]	> 25	> 25		
COC(=O)c1cc(-c2ccc(C)cc2)n(-c2ccc(S(=O)(=O)N(C)C)cc2)n1 [Compound 31]			> 25	> 25
Cc1ccc(C(=O)N2CCN(C(=O)c3ccc(C4=c5cc6c7c(c5Oc5c4cc4c8c5CCCN8CCC4)CCC[N+]=7CCC6)c(C(=O)[O-])c3)CC2)cc1 [Compound 32]	> 25	> 25		
